Measurements published in PMC7705431 (Cell Research, 2020).

What was measured:
SARS-CoV-2 = format: cell-based
human ACE2 = target: T1, human ACE2 (Homo sapiens, UniProt Q9BYF1); assay: SPR binding to immobilized human ACE2 (BIAcore S200); settings: read-out: ka
T1 construct: purchased Sino Biological Inc. 10108-H08B
Experimental: The remaining activated sites on the chip were blocked with 75 μL of ethanolamine (1 M, pH 8.5). […] The equilibrium dissociation constant (KD) for binding as well as the association (Ka) and dissociation (Kd) rate constants were determined using the BIA evaluation program (GE, USA).

cathepsin L = target: T2, cathepsin L (Homo sapiens, UniProt P07711); assay: Cathepsin L activity assay (fluorometric kit); format: biochemical
T2 construct: purchased Abcam ab65306
T2 sequence (P07711 114-333, species assumed): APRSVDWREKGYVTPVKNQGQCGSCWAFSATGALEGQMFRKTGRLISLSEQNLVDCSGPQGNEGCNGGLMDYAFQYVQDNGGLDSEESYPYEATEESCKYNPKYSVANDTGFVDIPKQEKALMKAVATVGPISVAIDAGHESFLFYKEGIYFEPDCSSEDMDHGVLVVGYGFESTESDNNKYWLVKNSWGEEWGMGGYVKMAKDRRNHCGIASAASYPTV
Experimental: A positive control of cathepsin L inhibitor I (CTSL, MG-101, 20 μM) was provided in the kit. A total of 2 μL of 10 mM Ac-FR-AFC substrate was added to each well. The samples were incubated at 37 °C for 2 h. Fluorescence was measured using a multifunctional microplate reader (Cytation 3, BioTek, Winooski, VT, USA), at an excitation wavelength of 400 nm and an emission wavelength of 505 nm.

[1] = rhesus monkey, in vivo
in vitro = settings: Vero E6 cells
[2] = cited from earlier work
[3] = cited from earlier work; remark: listed apart in the source
[4] = preclinical and clinical studies; cited from earlier work
[5] = target: T3, SARS-CoV-2 spike protein–ACE2 interaction (Homo sapiens, UniProt Q9BYF1); assay: co-IP of SARS-CoV-2 spike protein with ACE2, western blot; format: biochemical; settings: drug 10 μM; western blot with anti-ACE2 antibody
T3 sequence (Q9BYF1 18-740): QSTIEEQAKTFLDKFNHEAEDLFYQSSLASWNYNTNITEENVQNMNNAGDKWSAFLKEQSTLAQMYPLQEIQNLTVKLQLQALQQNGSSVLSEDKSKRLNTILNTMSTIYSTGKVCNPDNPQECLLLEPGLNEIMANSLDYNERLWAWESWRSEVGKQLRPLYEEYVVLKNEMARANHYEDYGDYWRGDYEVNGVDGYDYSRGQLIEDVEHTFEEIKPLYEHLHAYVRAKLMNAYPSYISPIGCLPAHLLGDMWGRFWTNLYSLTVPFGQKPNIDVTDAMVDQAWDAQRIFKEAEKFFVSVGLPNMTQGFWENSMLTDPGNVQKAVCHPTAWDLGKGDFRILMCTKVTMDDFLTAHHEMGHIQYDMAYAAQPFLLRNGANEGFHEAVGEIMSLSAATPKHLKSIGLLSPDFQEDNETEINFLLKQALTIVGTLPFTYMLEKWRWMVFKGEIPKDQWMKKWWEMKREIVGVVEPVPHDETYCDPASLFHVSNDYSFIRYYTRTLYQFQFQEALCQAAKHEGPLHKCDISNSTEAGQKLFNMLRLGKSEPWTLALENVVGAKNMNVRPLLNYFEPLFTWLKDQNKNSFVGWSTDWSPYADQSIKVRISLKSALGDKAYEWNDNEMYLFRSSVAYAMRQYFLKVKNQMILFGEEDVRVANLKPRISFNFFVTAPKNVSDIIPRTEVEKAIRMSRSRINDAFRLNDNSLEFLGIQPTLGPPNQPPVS
Experimental: Co-IP was performed as follows. […] The blots were incubated with anti-rabbit IgG HRP (KPL, USA) and imaged using electrochemiluminescence (ECL, ThermoFisher, USA).

[6] = target: T3, SARS-CoV-2 spike protein–ACE2 interaction; assay: ELISA of SARS-CoV-2 spike protein binding to ACE2 crosslinked to microplates; format: biochemical; settings: drug 1 μM; 1 h 37 °C

T1 sequence (Q9BYF1 18-805): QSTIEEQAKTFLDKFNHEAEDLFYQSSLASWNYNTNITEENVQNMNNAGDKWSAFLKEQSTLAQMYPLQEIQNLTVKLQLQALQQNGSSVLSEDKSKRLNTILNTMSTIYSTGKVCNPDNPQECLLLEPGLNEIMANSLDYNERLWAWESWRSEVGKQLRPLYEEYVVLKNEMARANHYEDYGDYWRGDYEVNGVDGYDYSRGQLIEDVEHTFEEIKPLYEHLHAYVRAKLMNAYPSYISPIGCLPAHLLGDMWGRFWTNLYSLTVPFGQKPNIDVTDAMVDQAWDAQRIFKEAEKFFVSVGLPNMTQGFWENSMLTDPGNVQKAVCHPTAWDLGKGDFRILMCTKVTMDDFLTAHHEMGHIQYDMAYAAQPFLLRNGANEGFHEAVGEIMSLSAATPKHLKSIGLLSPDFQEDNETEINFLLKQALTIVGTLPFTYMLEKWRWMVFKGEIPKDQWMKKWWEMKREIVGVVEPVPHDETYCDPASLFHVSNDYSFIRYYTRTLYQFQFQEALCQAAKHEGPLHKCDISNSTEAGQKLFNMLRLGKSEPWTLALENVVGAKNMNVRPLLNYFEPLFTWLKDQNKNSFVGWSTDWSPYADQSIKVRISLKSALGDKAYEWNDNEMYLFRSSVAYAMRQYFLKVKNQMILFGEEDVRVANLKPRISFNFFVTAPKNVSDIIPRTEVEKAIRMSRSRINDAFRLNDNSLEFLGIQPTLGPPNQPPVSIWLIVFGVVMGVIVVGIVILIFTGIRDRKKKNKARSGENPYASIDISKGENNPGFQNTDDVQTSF

With `CCC(CC)COC(=O)[C@H](C)N[P@](=O)(OC[C@H]1O[C@@](C#N)(c2ccc3c(N)ncnn23)[C@H](O)[C@@H]1O)Oc1ccccc1` [Remdesivir] the “inhibition of CPEs” value (SARS-CoV-2) was “significantly inhibited the CPEs”.
Work on `CN[C@H]1C(=O)N[C@@H]2Cc3ccc(cc3)Oc3cc4cc(c3O[C@@H]3O[C@H](C(=O)O)[C@@H](O)[C@H](O)[C@H]3NC(=O)CCCCCCCCC(C)C)Oc3ccc(cc3Cl)[C@@H](O)[C@@H]3NC(=O)[C@H](NC(=O)[C@@H]4NC(=O)[C@@H](NC2=O)c2cc(cc(O)c2Cl)Oc2cc1ccc2O)c1ccc(O)c(c1)-c1c(O[C@H]2O[C@H](CO)[C@@H](O)[C@H](O)[C@@H]2O)cc(O)cc1[C@@H](C(=O)NCCCN(C)C)NC3=O` [dalbavancin] yielded a kon (human ACE2) of 360000 M⁻¹ s⁻¹, an inhibition at 400 µM (cathepsin L; read-out: inhibition of cathepsin L enzymatic activity) of roughly 40% and a serum half-life [1] of 120 to 170 h. The CC50 (in vitro) was greater than 3.2 µM, the plasma half-life [2] was 120 to 170 h and the protein-bound in plasma [3] was greater than 90%. For the same compound, the tolerability [4] was “well tolerated”.
In the case of Oxiglutatione, the “suppression of SARS-CoV-2 spike protein–ACE2 co-precipitation” value [5] is reported as “suppressed the interaction” and the “inhibition of binding of SARS-CoV-2 spike protein to ACE2 (ELISA)” value [6] is reported as “inhibited the binding”.
For Polymyxin B sulfate, the “suppression of SARS-CoV-2 spike protein–ACE2 co-precipitation” value [5] was “suppressed the interaction”.
In the case of cathepsin L inhibitor I, the “inhibition of cathepsin L enzymatic activity” value (cathepsin L; 20 μM, positive control, Ac-FR-AFC substrate, 37 °C 2 h) is reported as ~ 100%.
